Laboratory results as given in patent EP0063381A1, “Pyrazolo(3-4-d) pyrimidines, process for their preparation and pharmaceutical compositions containing them” (Byk Gulden Lomberg Chemische Fabrik GmbH, priority 1981, dated 1982).
Like-named read-outs stand apart in the source and are kept apart here.

Experiments:
[1] = test system: Rinderherz PDE "Boehringer"; test: Inhibition of phosphodiesterase (PDE), substrate cAMP; assay type: biochemical, Rind; settings: compound 0,2 mM; substrate cAMP 0,15 mM; Rinderherz PDE in Glycerin; 200 µM
Procedure: Die Tabelle 1. gibt die gefundenen Werte der Hemmung der Phosphodiesterase (PDE) an. Es wurde Rinderherz PDE "Boehringer" in Glycerin und als Substrat cAMP (0,15 mM) verwendet. Die Konzentration der untersuchten Verbindungen war 0,2 mM.

[2] = test system: durch Methanol hervorgerufene Retinaschädigung; test: Retinotropic effect measured on the mouse electroretinogram (antagonism of methanol-induced retinal damage); assay type: in vivo, Maus; settings: for Retinotrope Wirkung [%]: Elektroretinogramm der Maus; for retinotrope Wirkung (in words): in the dose range in which the compounds of the invention were tested
Description: Die Versuchsmethodik ist bei K.K.Gauri und W.Hohl, Der Augenspiegel, 1979 (Heft 9), und […] Referenzen beschrieben.

[3] = test system: Trachealspangen-Kette des Meerschweinchens; test: Relaxation of the spontaneously contracted guinea pig tracheal ring chain in vitro (organ bath); set-up: species or system Meerschweinchen; settings: for Relative Wirkungsstärke (Theophyllin=1,00): relative to Theophyllin, from ED50 of tracheal relaxation; for EC50: relaxation as fraction of maximum by (-)Isoprenalin 10^-6 mol/l, cumulative concentrations, 37°C, read-out: ED50 (Dosis der halbmaximal möglichen Relaxation)
Procedure: Weiterhin wurde die relaxierende Wirkung erfindungsgemäBer Verbindungen auf die Trachealspangen-Kette des Meerschweinchens in vitro geprüft:
Vier parallele, aus jeweils 6 Einzelringen bestehende Trachealspangen-Ketten des Meerschweinchens (♂ und ♀, 430-600 g) im Organbad (5 ml, Krebs-Henseleit-Lösung mit Zusatz von Phentolamin (10^-5 mol/l, 37°C, Vorspannung der Organe 2 g, Begasung mit Carbogen) entwickeln nach etwa 20 bis 30 Minuten eine stabile, tonische Spontankontraktur. An diesen dauerkontrahierten Organen kann unter isometrischen Meßbedingungen durch Applikation der Prüfsubstanz in kumulativhalblogarithmisch ansteigender Konzentration (z.B. 1x10^-6 + 2x10^-6 + 7x10^-6 + 2x10^-5 usw. mol/l) eine Relaxation herbeigeführt werden, wobei nach jeder Einzeldosis der Testsubstanz eine konstante Relaxations-Antwort abgewartet wird, bevor die nächst höhere Konzentration appliziert wird. Ober einen Zeitraum von 20 bis 30 Minuten wird somit eine vollständige Dosis-Wirkungskurve der Testsubstanz erhalten. Die jeweilige Relaxation wird als Prozentbruchteil der durch Gabe von (-)Isoprenalin (10^-6 mol/1) maximal erreichbaren Relaxation ausgedrückt.
In Tabelle 3 sind die ED50 (Dosis der halbmaximal möglichen Relaxation) und die relative Wirkungsstärke im Vergleich zu Theophyllin für erfindungsgemäße Verbindungen angegeben.

SMILES: CCCCCCn1c(=O)n(C)c(=O)c2c[nH]nc21 [I, 7-n-Hexyl-4,5,6,7-tetrahydro-5-methyl-4,6-dioxo-2H-pyrazolo[3,4-d]-pyrimidin]
- Hemmung der PDE in % [1]: 47,84%

SMILES: CCCCCCn1c(=O)n(C)c(=O)c2cn(C)nc21 [II, 7-n-Hexyl-4,5,6,7-tetrahydro-2,5-dimethyl-4,6-dioxo-2H-pyrazolo[3,4-d]-pyrimidin]
- Hemmung der PDE in % [1]: 47,41%

SMILES: CCCCCCn1c(=O)n(C)c(=O)c2cn(CC)nc21 [III, 2-Ethyl-7-n-hexyl-4,5,6,7-tetrahydro-5-methyl-4,6-dioxo-2H-pyrazolo-[3,4-d]pyrimidin]
- Retinotrope Wirkung [%] ([2]; Dosis 1 mg/kg): +24%
- Hemmung der PDE in % [1]: 58,51%

SMILES: CCCCCCn1c(=O)n(C)c(=O)c2cn(CCC)nc21 [IV, 7-n-Hexyl-4,5,6,7-tetrahydro-5-methyl-4,6-dioxo-2-n-propyl-2H-pyrazolo-[3,4-d]pyrimidin]
- Hemmung der PDE in % [1]: 63,04%

SMILES: CCCCCCn1c(=O)c2cn(CC)nc2n(C)c1=O [IX, 2-Ethyl-5-n-hexyl-4,5,6,7-tetrahydro-7-methyl-4,6-dioxo-2H-pyrazolo-[3,4-d]pyrimidin]
- Retinotrope Wirkung [%] ([2]; Dosis 1 mg/kg): +12%
- Hemmung der PDE in % [1]: 71,52%
- Relative Wirkungsstärke (Theophyllin=1,00) [3]: 3,4
- EC50 [3]: 38 µM

SMILES: CC(=O)CCCCn1c(=O)c2c(ncn2C)n(C)c1=O [Pentoxifyllin, reference compound]
- Retinotrope Wirkung [%] ([2]; Dosis 6,25 mg/kg): 0%
- retinotrope Wirkung (in words) [2]: noch keine retinotrope Wirkung

SMILES: Cn1c(=O)c2[nH]cnc2n(C)c1=O [Theophyllin, reference compound]
- Retinotrope Wirkung [%] ([2]; Dosis 10 mg/kg): 0%
- retinotrope Wirkung (in words) [2]: noch keine retinotrope Wirkung
- Hemmung der PDE in % [1]: 37,13%
- Relative Wirkungsstärke (Theophyllin=1,00) [3]: 1,00
- EC50 [3]: 130 µM

SMILES: CCCCCCn1c(=O)n(C)c(=O)c2cn(CCCC)nc21 [V, 2-n-Butyl-7-n-hexyl-4,5,6,7-tetrahydro-5-methyl-4,6-dioxo-2H-pyra-zolo-[3,4-d]pyrimidin]
- Hemmung der PDE in % [1]: 70,86%
- Relative Wirkungsstärke (Theophyllin=1,00) [3]: 1,8
- EC50 [3]: 62 µM

SMILES: CCCCCCn1cc2c(=O)n(C)c(=O)n(CCCCCC)c2n1 [VI, 2,7-Di-n-hexyl-4,5,6,7-tetrahydro-5-methyl-4,6-dioxo-2H-pyrazolo[3,4-d]-pyrimidin]
- Hemmung der PDE in % [1]: 37,30%

SMILES: CCCCCCn1c(=O)c2cn[nH]c2n(C)c1=O [VII, 5-n-Hexyl-4,5,6,7-tetrahydro-7-methyl-4,6-dioxo-1H-pyrazolo[3,4-d]-pyrimidin]
- Hemmung der PDE in % [1]: 52,43%

SMILES: CCCCCCn1c(=O)c2cn(C)nc2n(C)c1=O [VIII, 5-n-Hexyl-4,5,6,7-tetrahydro-2,7-dimethyl-4,6-dioxo-2H-pyrazolo-[3,4-d]pyrimidin]
- Hemmung der PDE in % [1]: 42,04%

SMILES: CCCCCCn1c(=O)c2cn(CCCC)nc2n(C)c1=O [X, 2-n-Butyl-5-n-hexyl-4,5,6,7-tetrahydro-7-methyl-4,6-dioxo-2H-pyra-zolo[3,4-d]pyrimidin]
- Hemmung der PDE in % [1]: 37,83%

SMILES: CCCCCCn1cc2c(=O)n(CCCCCC)c(=O)n(C)c2n1 [XI, 2,5-Di-n-hexyl-4,5,6,7-tetrahydro-7-methyl-4,6-dioxo-2H-pyrazolo-[3,4-d]pyrimidin]
- Hemmung der PDE in % [1]: 18,35%

SMILES: CCCCCCn1c(=O)c2cn(C(=O)c3cc(OC)c(OC)c(OC)c3)nc2n(C)c1=O [XII, 5-n-Hexyl-4,5,6,7-tetrahydro-2-(3,4,5-trimethoxybenzoyl)-7-methyl-4,6-dioxo-2H-pyrazolo[3,4-d]pyrimidin]
- Retinotrope Wirkung [%] ([2]; Dosis 1 mg/kg): +40%
- EC50 ([3]; Cavia porcellus): 350 µM
- Relative Wirkungsstärke (Theophyllin=1,00) [3]: 3,7

SMILES: CCCCCCn1c(=O)n(C)c(=O)c2cnn(C)c21 [XIII, 7-Hexyl-4,5,6,7-tetrahydro-1,5-dimethyl-4,6-dioxo-1H-pyrazolo-[3,4-d]pyrimidin]
- Relative Wirkungsstärke (Theophyllin=1,00) [3]: 1,4
- EC50 [3]: 95 µM

SMILES: COc1cc(C(=O)n2cc3c(=O)n(CC(C)C)c(=O)n(C)c3n2)cc(OC)c1OC [XVI, 5-i-Butyl-4,5,6,7-tetrahydro-2-(3,4,5-trimethoxybenzoyl)-7-methyl-4,6-dioxo-2H-pyrazolo[3,4-d]pyrimidin]
- Relative Wirkungsstärke (Theophyllin=1,00) [3]: 1,7
- EC50 [3]: 75 µM

SMILES: CCn1c(=O)n(CCCCC(C)=O)c(=O)c2cnn(C)c21 [XVII, 7-Ethyl-4,5,6,7-tetrahydro-1-methyl-4,6-dioxo-5'-(5-oxo-n-hexyl)-1H-pyrazolo[3,4-d]pyrimidin]
- Retinotrope Wirkung [%] ([2]; Dosis 2 mg/kg): +80%
- Relative Wirkungsstärke (Theophyllin=1,00) [3]: 2,0
- EC50 [3]: 66 µM

SMILES: CC(C)Cn1c(=O)n(C)c(=O)c2cn(CCO)nc21 [XVIII, 7-j-Butyl-4,5,6,7-tetrahydro-2-(2-hydroxyethyl)-5-methyl-4,6-dioxo-2H-pyrazolo[3,4-d]pyrimidin]
- Relative Wirkungsstärke (Theophyllin=1,00) [3]: 10,0
- EC50 [3]: 13 µM

SMILES: CC(C)Cn1c(=O)n(C)c(=O)c2c[nH]nc21 [XV]
- Relative Wirkungsstärke (Theophyllin=1,00) [3]: 7,6
- EC50 [3]: 17 µM
